In the assay the test system is B. cepacia biofilm. The class given is cell-based, Burkholderia cepacia.

Take `O=[O+][O-]` [ozone, Ozone]: the “biocide efficacy (rank order, from cell number/3000 μm^2 and total cell area vs elapsed time)” value is “greatest”.

The record behind these values is patent US6498862B1 (priority 1999, dated 2002).
